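Method: 48-hour compound exposure of cells in 96-well plates, five concentrations, linear interpolation of endpoints. GI50: concentration for 50% inhibition of growth. At the TGI there is no net growth.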
What was measured:
Experiment in all cases: NCI anticancer screen, dose series, 48 h
TK-10 renal = tested on: TK-10 renal
SR leukemia = tested on: SR leukemia
A498 renal = tested on: A498 renal
NCI-H23 lung = tested on: NCI-H23 lung
SK-MEL-5 melanoma = tested on: SK-MEL-5 melanoma
LOX IMVI melanoma = tested on: LOX IMVI melanoma
UO-31 renal = tested on: UO-31 renal
UACC-257 melanoma = tested on: UACC-257 melanoma
M14 melanoma = tested on: M14 melanoma
XF 498 CNS = tested on: XF 498 CNS

Row | Compound | TGI (TK-10 renal) | TGI (SR leukemia) | TGI (A498 renal) | TGI (NCI-H23 lung) | TGI (SK-MEL-5 melanoma) | TGI (LOX IMVI melanoma) | TGI (UO-31 renal) | TGI (UACC-257 melanoma) | TGI (M14 melanoma) | GI50 (TK-10 renal) | GI50 (SR leukemia) | GI50 (A498 renal) | GI50 (NCI-H23 lung) | GI50 (SK-MEL-5 melanoma) | GI50 (LOX IMVI melanoma) | GI50 (UACC-257 melanoma) | GI50 (M14 melanoma) | TGI (XF 498 CNS) | GI50 (XF 498 CNS) | GI50 (UO-31 renal)
1 | COc1cc(/C=C2/Oc3c(OC)cccc3C2=O)ccc1O | > 100 µM | > 100 µM | > 100 µM | > 100 µM | > 100 µM | > 100 µM | > 100 µM | > 100 µM | > 100 µM | – | – | – | – | – | – | – | – | – | – | –
2 | CCOC(=O)c1csc(NC(=O)C(C)N2CCOCC2)n1 (stereo not given) | > 100 µM | > 100 µM | > 100 µM | > 100 µM | > 100 µM | > 100 µM | > 100 µM | > 100 µM | > 100 µM | – | – | – | – | – | – | – | – | – | – | –
3 | CCN(CC)CCNc1ccc([N+](=O)[O-])c2sc3cc(Cl)ccc3c(=O)c12 | > 100 µM | > 100 µM | 25.6 µM | > 100 µM | > 100 µM | > 100 µM | – | 4.96 µM | > 100 µM | 2.97 µM | 4.7 µM | 5.31 µM | 13.9 µM | 3.59 µM | 2.8 µM | 2.08 µM | 3.1 µM | – | – | –
4 | CC(C)=CCC/C(C)=C/C=C/C(C)=C/C1C[C@@]2(C(O)O1)[C@H](CCCO)/C(=C(/C)C=O)CC[C@]2(C)O (stereo not given in full) | 62.8 µM | 37.2 µM | – | – | – | 28 µM | 33.9 µM | 56.5 µM | 32.2 µM | – | – | – | – | – | – | – | – | 32.7 µM | – | –
5 | C[n+]1c(-c2ccc(/C=N/NC(=O)C(=O)N/N=C/c3ccc(-c4cn5ccccc5[n+]4C)cc3)cc2)cn2ccccc21 | > 100 µM | – | > 100 µM | > 100 µM | > 100 µM | – | > 100 µM | > 100 µM | > 100 µM | – | – | – | – | – | – | – | – | – | – | –
6 | c1cncc([O][Ge]([O]c2cccnc2)([O]c2cccnc2)[O]c2cccnc2)c1 | > 100 µM | > 100 µM | – | > 100 µM | > 100 µM | > 100 µM | > 100 µM | > 100 µM | > 100 µM | > 100 µM | > 100 µM | – | > 100 µM | > 100 µM | 47.1 µM | > 100 µM | > 100 µM | > 100 µM | > 100 µM | > 100 µM
7 | C/C(=N\NC(=S)N1CCOCC1)c1nc2ncccc2[nH]1 | > 100 µM | > 100 µM | > 100 µM | > 100 µM | > 100 µM | > 100 µM | 96.2 µM | 77.4 µM | > 100 µM | – | – | – | – | – | – | – | – | – | – | –
8 | Cc1cc(Nc2ccc(Cl)cc2)nc(NCCCNc2ccnc3cc(Cl)ccc23)n1 | 3.19 µM | – | – | – | 2.91 µM | 3.18 µM | 2.96 µM | 3.39 µM | – | 1.73 µM | – | – | – | 1.57 µM | 1.64 µM | 1.8 µM | – | – | – | 1.49 µM
9 | O=C(O)/C=C/c1ccncc1 | > 100 µM | > 100 µM | > 100 µM | > 100 µM | > 100 µM | > 100 µM | > 100 µM | > 100 µM | > 100 µM | – | – | – | – | – | – | – | – | > 100 µM | – | –

— PubChem BioAssay (NCI)
